Experimental findings from ChEMBL document CHEMBL3526122, “Identification of UDP-glucuronosyltransferases responsible for the glucuronidation of darexaban, an oral factor Xa inhibitor, in human liver and intestine” (Drug Metab Dispos, 2012) are described below.

For data set [1], the target named is T1, UDP-glucuronosyltransferase 1A9 (Homo sapiens, UniProt O60656).
T1 sequence (O60656 whole entry): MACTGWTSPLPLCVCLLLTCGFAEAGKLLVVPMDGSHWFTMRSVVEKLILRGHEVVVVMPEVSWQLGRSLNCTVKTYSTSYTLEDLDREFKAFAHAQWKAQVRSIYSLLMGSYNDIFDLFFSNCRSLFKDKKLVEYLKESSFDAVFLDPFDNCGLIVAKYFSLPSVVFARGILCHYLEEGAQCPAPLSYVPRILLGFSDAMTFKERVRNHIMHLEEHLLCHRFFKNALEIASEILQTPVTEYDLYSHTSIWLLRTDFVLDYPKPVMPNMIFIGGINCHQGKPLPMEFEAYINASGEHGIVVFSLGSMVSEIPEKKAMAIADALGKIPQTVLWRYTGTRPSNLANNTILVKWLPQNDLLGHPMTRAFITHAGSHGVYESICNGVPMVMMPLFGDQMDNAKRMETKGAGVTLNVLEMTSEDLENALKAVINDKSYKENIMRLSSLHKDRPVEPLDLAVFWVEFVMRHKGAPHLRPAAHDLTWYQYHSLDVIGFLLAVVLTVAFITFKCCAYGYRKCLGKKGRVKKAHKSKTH
The data set is described as follows: Activity of human recombinant UGT1A9 expressed in baculovirus-infected insect cells assessed as unbound intrinsic clearance for enzyme-mediated glucuronidation per mg of protein after 5 mins by Michaelis-Menten plot analysis in presence of UDPGA and 2% fatty acid free BSA. The data set is classed as ADME.

Data set [2] in a line: Fraction unbound in incubation mixture containing human recombinant UGT1A9 at 1 to 250 uM after 10 mins by ultrafiltration method in absence of fatty acid free BSA.
In data set [3] the target is T2, UDP-glucuronosyltransferase 1A10 (Homo sapiens, UniProt Q9HAW8).
T2 sequence (Q9HAW8 whole entry): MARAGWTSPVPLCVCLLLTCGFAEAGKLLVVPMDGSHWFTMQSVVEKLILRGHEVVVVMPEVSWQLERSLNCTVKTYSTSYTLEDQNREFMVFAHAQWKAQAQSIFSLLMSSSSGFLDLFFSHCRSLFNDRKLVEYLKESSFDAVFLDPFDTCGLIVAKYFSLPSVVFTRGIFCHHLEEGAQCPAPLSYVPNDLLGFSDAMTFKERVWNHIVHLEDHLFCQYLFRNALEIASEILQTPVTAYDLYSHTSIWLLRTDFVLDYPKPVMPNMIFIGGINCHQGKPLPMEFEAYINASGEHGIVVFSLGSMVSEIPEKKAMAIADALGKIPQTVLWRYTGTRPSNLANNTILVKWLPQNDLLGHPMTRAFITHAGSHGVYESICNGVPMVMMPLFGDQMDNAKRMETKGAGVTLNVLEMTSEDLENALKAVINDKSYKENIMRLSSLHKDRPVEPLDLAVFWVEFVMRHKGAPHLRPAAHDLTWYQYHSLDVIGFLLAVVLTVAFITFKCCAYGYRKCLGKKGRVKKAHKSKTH
As to the kind of experiment: Activity of recombinant human UGT1A10 expressed in baculovirus-infected insect cells assessed as enzyme-mediated glucuronidation per mg of protein after 10 mins in presence of UDPGA. Format: ADME.

Data set [4] deals with T3, UDP-glucuronosyltransferase 2B15 (Homo sapiens, UniProt P54855).
T3 sequence (P54855 whole entry): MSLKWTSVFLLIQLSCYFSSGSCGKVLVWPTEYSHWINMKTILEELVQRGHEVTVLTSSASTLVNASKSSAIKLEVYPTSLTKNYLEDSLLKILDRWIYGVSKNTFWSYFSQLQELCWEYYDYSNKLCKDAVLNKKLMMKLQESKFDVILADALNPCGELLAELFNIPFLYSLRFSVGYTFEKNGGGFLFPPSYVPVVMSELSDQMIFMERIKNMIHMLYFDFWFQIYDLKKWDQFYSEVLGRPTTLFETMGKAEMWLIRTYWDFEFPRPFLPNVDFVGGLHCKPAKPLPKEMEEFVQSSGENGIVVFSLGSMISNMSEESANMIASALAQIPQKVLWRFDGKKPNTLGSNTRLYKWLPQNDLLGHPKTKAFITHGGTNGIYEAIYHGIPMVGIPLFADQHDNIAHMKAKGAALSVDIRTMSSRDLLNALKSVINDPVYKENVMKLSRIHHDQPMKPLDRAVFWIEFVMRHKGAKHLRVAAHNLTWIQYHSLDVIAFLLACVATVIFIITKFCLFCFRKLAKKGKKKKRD
As to the kind of experiment: Activity of human recombinant UGT2B15 expressed in baculovirus-infected insect cells assessed as enzyme-mediated glucuronidation per mg of protein after 10 mins in presence of UDPGA. Format: ADME.

Data set [5] deals with Liver microsome. The data set is described as follows: Unbound intrinsic clearance in human liver microsomes assessed per mg of protein after 10 mins in presence of UDPGA and 2% fatty acid free BSA. The data set is classed as ADME. On the technique in general: Microsomes from liver hold many membrane-bound enzymes, among them those of drug oxidation.
A short description of data set [6]: Ratio of Km for drug metabolism in human liver microsomes to Km for human recombinant UGT1A9-mediated drug metabolism. Format: ADME. The settings on record: recombinant enzyme.
The target in data set [7] is T4, UDP-glucuronosyltransferase 1A1 (Homo sapiens, UniProt P22309).
T4 sequence (P22309 whole entry): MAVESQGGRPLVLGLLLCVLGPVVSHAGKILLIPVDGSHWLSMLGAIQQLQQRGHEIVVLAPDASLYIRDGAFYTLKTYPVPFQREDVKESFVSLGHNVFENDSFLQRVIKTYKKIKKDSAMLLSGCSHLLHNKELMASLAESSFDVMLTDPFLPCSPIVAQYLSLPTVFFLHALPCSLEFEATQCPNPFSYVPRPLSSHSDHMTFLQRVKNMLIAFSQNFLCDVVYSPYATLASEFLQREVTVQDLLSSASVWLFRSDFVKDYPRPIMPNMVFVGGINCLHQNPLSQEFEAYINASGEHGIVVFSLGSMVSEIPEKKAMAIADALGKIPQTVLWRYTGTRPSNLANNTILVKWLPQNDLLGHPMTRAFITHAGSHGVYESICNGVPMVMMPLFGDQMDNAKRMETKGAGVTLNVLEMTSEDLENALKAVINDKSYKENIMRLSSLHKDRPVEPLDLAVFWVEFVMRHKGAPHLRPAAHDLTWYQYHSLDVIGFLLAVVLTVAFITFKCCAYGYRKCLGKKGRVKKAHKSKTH
As to the kind of experiment: Activity of human recombinant UGT1A1 expressed in baculovirus-infected insect cells assessed as enzyme-mediated glucuronidation per mg of protein after 10 mins in presence of UDPGA. The data set is classed as ADME.

Data set [8] has as its system Liver microsome. As to the kind of experiment: Drug metabolism in human liver microsomes assessed as glucuronidation per mg of protein after 10 mins by Michaelis-Menten plot analysis in presence of UDPGA and 0.5% fatty acid free BSA. The data set is classed as ADME.
Data set [9] concerns the target T2, UDP-glucuronosyltransferase 1A10. As to the kind of experiment: Inhibition of human recombinant UGT1A10 after 10 mins in presence of UDPGA. The data set is classed as ADME.
The target of data set [10] is T1, UDP-glucuronosyltransferase 1A9. The data set is described as follows: Activity of human recombinant UGT1A9 expressed in baculovirus-infected insect cells assessed as unbound intrinsic clearance for enzyme-mediated glucuronidation per mg of protein after 5 mins by Michaelis-Menten plot analysis in presence of UDPGA and absence of fatty acid free BSA. Format: ADME.

The nature of data set [11]: Fraction unbound in human liver microsomes at 1 to 250 uM after 10 mins by ultrafiltration method in absence of fatty acid free BSA. The data set is classed as ADME.
The nature of data set [12]: Fraction unbound in human liver microsomes at 1 to 250 uM after 10 mins by ultrafiltration method in presence of 0.1% fatty acid free BSA. The data set is classed as ADME.

Molecules are shown by their SMILES.

Regarding `COc1ccc(C(=O)Nc2cccc(O)c2NC(=O)c2ccc(N3CCCN(C)CC3)cc2)cc1.O=C(O)CCC(=O)O`, the CL free was 316 µL/min/mg in data set [1], 178 µL/min/mg in data set [5] and 138 µL/min/mg in data set [10]. The Fu in [2] worked out at 0.879. In addition, the Drug metabolism was 0.516 nmol/min/mg in data set [3], below 0.01 nmol/min/mg in data set [4] and below 0.01 nmol/min/mg in data set [7]. Moreover, the Ratio in [6] came out at 4.3. In [8], the Vmax came to 3.25 nmol/min/mg. Further, the Ki in [9] was determined as 235 µM. Besides, the fraction unbound at 10 min, up to 250 µM in data set [11] was 0.873; in data set [12] it was 0.72.

The Vmax is the top rate of the reaction or transport when substrate is in excess. What is called Ki is a dissociation constant, usually derived from enzyme kinetics or from competition with a known ligand. One may read the fraction unbound as the share of the substance not bound to proteins or other matrix.
